Assays:
[1] = tested on: Human vascular smooth muscle cells; assay: bleomycin (BLM) and phosphorus-induced calcification of vascular smooth muscle cells under aging conditions (alizarin red staining, calcium content); assay type: cell-based; conditions: 100 µM 1-methylnicotinamide, 2.6 mM phosphorus, 1 µg/mL bleomycin, 7 days
Description: (§1) • 1. In this example, bleomycin (BLM) and phosphorus were added to induce vascular calcification in vascular smooth muscle cells, and 1-methylnicotinamide or nicotinamide N-methyltransferase inhibitor (NNMTi) was added for intervention for 7 days, and then alizarin red staining was performed to evaluate the inhibitory effect of 1-methylnicotinamide on vascular calcification. The specific procedure was as follows. Human vascular smooth muscle cells of passages 8-12 were plated in a 12-well plate at 1×10^5/well, and 1 mL of DMEM complete medium was added to each well. On the first day after plating, 2.6 mM phosphorus was added to induce calcification, and 100 µM 1-methylnicotinamide or 25 µM nicotinamide N-methyltransferase inhibitor (NNMTi) was added for intervention. […] After 7 days of intervention with 1-methylnicotinamide or nicotinamide N-methyltransferase inhibitor (NNMTi), a calcium content was determined. […]
(§2) Human vascular smooth muscle cells of passages 8-12 were plated in a 6-well plate at 2×10^5/well, and 2 mL of DMEM complete medium was added to each well. […] On the seventh day, the calcium content was determined.

[2] = tested on: Naturally aged C57BL/6 mice; assay: high-calcium and high-adenine diet-induced vascular calcification in aged mice (aorta alizarin red staining, IHC of aortic rings); assay type: in vivo; conditions: 2.5 months, 25 months old mice
Description: • 1. In this example, a high-calcium and high-adenine diet was used to induce vascular calcification in aged mice. After intervention by using 1-methylnicotinamide for 2.5 months, alizarin red staining was performed on the aorta of the mice to evaluate the inhibitory effect of 1-methylnicotinamide on vascular calcification in aged mice. The specific procedure was as follows.
Naturally aged C57BL/6 mice (25 months old) were randomly divided into a control group (n=10), a high-calcium and high-adenine group (n=10), and a high-calcium and high-adenine + 1-methylnicotinamide group (100 mg/kg/day) (n=10), and were fed with normal feed, high-calcium and high-adenine feed, and high-calcium and high-adenine feed and 1-methylnicotinamide respectively, and water is normally provided for each group. The mice were killed after 2.5 months, and the aortas of the mice were obtained for alizarin red staining.
2. To further verify the effect of 1-methylnicotinamide in inhibiting vascular calcification in aged mice, a high-calcium and high-adenine diet was used to induce vascular calcification in aged mice. After 2.5 months of intervention with 1-methylnicotinamide, the IHC staining was performed on α-smooth muscle actin (α-SMA) and bone morphogenetic protein 2 (BMP2) in mouse aortic rings to further evalaute the inhibitory effect of 1-methylnicotinamide on vascular calcification in aged mice. […]

[3] = tested on: Human vascular smooth muscle cells; assay: phosphorus-induced calcification of vascular smooth muscle cells (alizarin red staining, calcium content); assay type: cell-based; conditions: 100 µM 1-methylnicotinamide, 2.6 mM phosphorus, 7 days
Description: as §1, with “example,” for “example, bleomycin (BLM) and”, “phosphorus was” for “phosphorus were”, “intervention. On the fourth day, the DMEM complete medium was replaced and 2.6 mM phosphorus was added to induce calcification again, and 100 µM 1-methylnicotinamide or 25 µM nicotinamide N-methyltransferase inhibitor (NNMTi) was added for intervention.” for “intervention.”
as §2

[4] = tested on: Human vascular smooth muscle cells; assay: cisplatin (DDP) and phosphorus-induced calcification of vascular smooth muscle cells under aging conditions (alizarin red staining, calcium content); assay type: cell-based; conditions: 100 µM 1-methylnicotinamide, 2.6 mM phosphorus, 7 days
Description: 3. To further verify the effect of 1-methylnicotinamide in inhibiting vascular calcification under aging conditions, cisplatin (DDP) and phosphorus were added to induce calcification in vascular smooth muscle cells. After 7 days of intervention with 1-methylnicotinamide or nicotinamide N-methyltransferase inhibitor (NNMTi), alizarin red staining was performed to further evaluate the inhibitory effect of 1-methylnicotinamide on vascular calcification under aging conditions. The specific procedure was as follows.
Human vascular smooth muscle cells of passages 8-12 were plated in a 12-well plate at 1×10^5/well, and 1 mL of DMEM complete medium was added to each well. On the first day after plating, 2.6 mM phosphorus was added to induce calcification, and 100 µM 1-methylnicotinamide or 25 µM nicotinamide N-methyltransferase inhibitor (NNMTi) was added for intervention. […]
4. Cisplatin and phosphorus were added to induce calcification in vascular smooth muscle cells, and 1-methylnicotinamide or nicotinamide N-methyltransferase inhibitor (NNMTi) was added for intervention for 7 days, and then the calcium content was determined. […]
as §2

C[n+]1cccc(C(N)=O)c1 [1-methylnicotinamide]
alizarin red staining ([1]; Panel A of Fig. 3): could significantly inhibit the calcification of bleomycin-induced aged vascular smooth muscle cells
calcium content ([1]; Panel B of Fig. 3): had the effect of inhibiting vascular calcification under aging conditions
alizarin red staining of the aorta ([2]; 100 mg/kg/day 1-methylnicotinamide with high-calcium and high-adenine feed, Panel A of Fig. 4): could significantly inhibit vascular calcification in aged mice
IHC staining of α-SMA and BMP2 in aortic rings ([2]; 1-methylnicotinamide with high-calcium and high-adenine feed, Panel B of Fig. 4): could significantly inhibit vascular calcification in aged mice
alizarin red staining ([3]; Fig. 1): could significantly inhibit the occurrence of vascular calcification
calcium content ([3]; Fig. 2): had the effect of inhibiting vascular calcification
calcium content ([4]; 1 µM cisplatin, Panel D of Fig. 3): had the effect of inhibiting vascular calcification under aging conditions
alizarin red staining ([4]; 1 µg/mL cisplatin, Panel C of Fig. 3): could significantly inhibit the calcification of cisplatin-induced aged vascular smooth muscle cells

From patent publication EP4613271A1, “USE OF 1-METHYLNICOTINAMIDE IN PREPARATION OF ANTI-VASCULAR CALCIFICATION DRUG” (The Eight Affiliated Hospital, Sun Yat-Sen University, priority 2023, dated 2024)
